# Source: US10940206B2, “Ophthalmic composition comprising lipoic acid and a mucomimetic polymer” (OPHTALMIS MONACO, priority 2015, dated 2021)
# Experiments:
# [1] = tested on: human conjunctival (WKD) and corneal (HCE) cells; assay: Osmoprotective activity: cell viability (XTT assay) under hyperosmolar stress; format: cell-based; details: Homo sapiens, HCE; for viability at 0.0005 % strength: 0.0005% w/v; for viability at 0.001 % strength: 0.001% w/v; for viability at 0.005 % strength: 0.005% w/v; for viability at 0.01 % strength: 0.01% w/v; for viability at 0.05 % strength: 0.05% w/v
# Protocol: (§1) A study was carried out to determine the osmoprotective capacity of sodium lipoate (A) during hyperosmolar stress on human conjunctival (WKD) and corneal (HCE) cells. The osmoprotective activity of A, then A with B and C, was evaluated by measuring cell viability in particular. To that end, cells were preincubated for 17 h with the test substance(s). Next, the medium was removed and the cells were subjected to hyperosmolar stress by addition of sodium chloride (100 mM NaCl) to the culture medium (M199 for the WKD cells and KSFM for the HCE cells). Cellgrowth control cells were contacted with isotonic medium. Cell viability was analyzed preosmotic stress (0 h) in order to measure the effect of the molecules remaining in contact with the cells during the 17 h of incubation, then at 4 h, 8 h and 24 h post-induction of osmotic stress. The cell viability measurement was carried out via an XTT assay. Various concentrations of A were tested for the “molecule alone” tests: 0.0005%, 0.001%, 0.005%, 0.01% and 0.05% w/v. For the molecule mixture tests, the following concentrations were tested: for A: 0.001%, 0.005%, and 0.01% w/v; for B: 0.25% w/v; and for C: 0.5% and 1% w/v. To ensure the validity and the significance of the data, the results obtained were analyzed statistically. The results presented below result from the mean of 3 independent repetitions, carried out on different days.
# [2] = as above; format: cell-based, human; details: human, 0 h (pre-osmotic stress, after 17 h preincubation)
# Protocol: as §1
# [3] = 4 h post-induction of osmotic stress (100 mM NaCl)
# [4] = 8 h post-induction of osmotic stress (100 mM NaCl)
# [5] = 24 h post-induction of osmotic stress (100 mM NaCl)
smiles,measurement,setting,value
"O=C(O)CCCCC1CCSS1 (centres unmarked) [sodium lipoate, 5-(1,2dithiolan-3-yl)pentanoic acid]",viability at 0.0005 % strength,[1]; [3],62.7%
same,viability at 0.0005 % strength,[1]; [4],38.5%
same,viability at 0.0005 % strength,[1]; [5],18.8%
same,viability at 0.001 % strength,[1]; [3],69.6%
same,viability at 0.001 % strength,[1]; [4],42.4%
same,viability at 0.001 % strength,[1]; [5],18.5%
same,viability at 0.005 % strength,[1]; [3],109%
same,viability at 0.005 % strength,[1]; [4],76.1%
same,viability at 0.005 % strength,[1]; [5],12.6%
same,viability at 0.01 % strength,[1]; [3],120%
same,viability at 0.01 % strength,[1]; [4],82.9%
same,viability at 0.01 % strength,[1]; [5],8.9%
same,viability at 0.05 % strength,[1]; [3],46%
same,viability at 0.05 % strength,[1]; [4],27.8%
same,viability at 0.05 % strength,[1]; [5],2.7%
same,"viability at 17 h, 0.0005 % w/v",[2]; 0.0005% w/v,99.9%
same,"viability at 17 h, 0.001 % w/v",[2]; 0.001% w/v,98.5%
same,"viability at 17 h, 0.005 % w/v",[2]; 0.005% w/v,103%
same,"viability at 17 h, 0.01 % w/v",[2]; 0.01% w/v,98.1%
same,"viability at 17 h, 0.05 % w/v",[2]; 0.05% w/v,56.3%
